Laboratory results taken from publication PMC9977302, “Medium-chain fatty acids suppress lipotoxicity-induced hepatic fibrosis via the immunomodulating receptor GPR84” (JCI Insight, 2023).
Read-outs that look alike come from different tables or passages of the source.

Molecular target: GPR84 (Mus musculus, UniProt Q8CIM5)
Assay: cAMP inhibition assay in Dox-inducible mouse GPR84 HEK293 cells, with Dox-uninduced controls
Type: cell-based

GPR84, sequence (Q8CIM5 whole entry): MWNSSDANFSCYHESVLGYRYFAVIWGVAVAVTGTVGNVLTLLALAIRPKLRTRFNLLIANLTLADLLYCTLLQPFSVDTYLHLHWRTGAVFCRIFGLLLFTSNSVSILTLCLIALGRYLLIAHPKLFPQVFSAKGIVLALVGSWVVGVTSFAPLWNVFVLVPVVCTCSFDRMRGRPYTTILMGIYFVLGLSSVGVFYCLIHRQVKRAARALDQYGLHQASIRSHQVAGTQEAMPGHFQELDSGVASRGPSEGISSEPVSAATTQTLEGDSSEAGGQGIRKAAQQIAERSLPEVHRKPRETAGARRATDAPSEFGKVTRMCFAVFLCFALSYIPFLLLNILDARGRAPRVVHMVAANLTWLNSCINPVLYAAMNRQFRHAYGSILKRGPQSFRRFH

| Structure (SMILES) | EC50 [µM] | EC50 (read-out: EC50) [µM] |
| --- | --- | --- |
| CCCCCCCCCC(=O)O [C10:0, capric acid] | 3.5 |  |
| CCCCCCCCCCCC(=O)O [C12:0] |  | 4.4 |
